Laboratory results reported in patent US9051387B2, “Inhibition of MyBP-C binding to myosin as a treatment for heart failure” (Wisconsin Alumni Research Foundation, priority 2012, dated 2015).
Entries after “also recorded” stand apart in the source; their conditions may differ.

Assays:
[1] = system: porcine skinned myocardium; test: Force-pCa relationship (Ca2+ sensitivity of force) in skinned myocardium; assay type: cell-based, pig
Procedure: Skinned myocardial preparations were attached between a force transducer (for measurements of force) and a displacement motor (to impose rapid changes in length for measurements of the kinetics of force development) while in relaxing solution (Olsson et al., 2004). The temperature was then adjusted to 22° C. for measurements of the contractile properties of myocardium in the presence and absence of peptide.
(§1) The force generating properties of murine or porcine skinned myocardium were measured as a function of free [Ca^2+] in activating solutions containing salts, a Ca^2+ buffer, and MgATP (Olsson et al., 2004). Free Ca^2+, expressed as −log [Ca^2+]free, was varied between sub-threshold (pCa 7.0) and saturating (pCa 4.5) levels with respect to force development. Measurements of isometric force as a function of pCa yielded force-pCa relationships, from which was determined the Ca^2+ sensitivity of force defined as the pCa at which force was half-maximal.
The force and kinetic data presented in the following section were obtained from each muscle preparation first during maximal activation at pCa 4.5, next during submaximal activation at a pCa>4.5, and once again during activation at pCa 4.5. The preparation was then bathed in relaxing solution containing peptide, after which the identical activation sequence was imposed. Finally, the peptide was washed out of the preparation by repeated washings in relaxing solution so that control measurements could again be done in the absence of peptide. This bracketing protocol ensured that the results in the presence of peptide were corrected for time-dependent rundown of the preparations during the experiment.
Measurements of Ca^2+ sensitivity of force were also performed using skinned myocardium from pig hearts, since these hearts are more similar to human hearts with respect to protein isoform expression than are mouse hearts. Specifically, the principal myosin isoform in porcine and human hearts is the much slower β-cardiac myosin, while the principal isoform in mouse hearts is the faster α-cardiac myosin. […] The slower β-cardiac isoform would be predicted to have a greater activating effect on the cardiac thin filament due to the longer residency time of the slower myosin on the thin filament.

[2] = system: murine skinned myocardium; test: Kinetics of force development (rate constant of force redevelopment, ktr); assay type: cell-based, mouse; conditions: 50 μM peptide, each pCa studied
Procedure: (§2) Skinned ventricular myocardium was prepared according to the protocol described by Chen et al. (2010). In brief, beating hearts were excised in vivo from anesthetized WT mice of either sex (˜6 months old) and dissected in Ca^2+-Ringer's solution containing 120 mM NaCl, 19 mM NaHCO3, 5 mM KCl, 1.2 mM Na2HPO4, 1.2 mM MgSO4, 1 mM CaCl2, and 10 mM glucose, pH 7.4 at 22° C., pre-equilibrated with 95% O2/5% CO2. Basal levels of RLC phosphorylation were reduced to uniformly low levels (i.e., <10%) as described previously (Olsson et al., 2004; Stelzer et al., 2006) by perfusing hemisected hearts with Ca^2+-Ringer's solution containing 30 mM 2,3-butanedione monoxime (BDM) for 30 minutes at 22° C. before rapid freezing in liquid nitrogen for storage prior to experimental measurements. The dephosphorylation of RLC provides an appropriate background for assessment of the effects of the peptide, since RLC phosphorylation increases force production in heart muscle and speeds contraction and RLC phosphorylation is nearly nil in heart failure. […]
The kinetics of force development were assessed as a function of pCa by measuring the rate of force redevelopment at each pCa following a rapid slackening and re-stretch of the muscle during steady Ca^2+ activation (Olsson et al., 2004; Stelzer et al., 2006). […]

mouse skinned myocardium [3] = test: Force-pCa relationship (Ca2+ sensitivity of force) in skinned myocardium; assay type: cell-based
Procedure: Skinned ventricular myocardium was prepared according to the protocol described by Chen et al. (2010). In brief, beating hearts were excised in vivo from anesthetized WT mice of either sex (˜6 months old) and dissected in Ca^2+-Ringer's solution containing 120 mM NaCl, 19 mM NaHCO3, 5 mM KCl, 1.2 mM Na2HPO4, 1.2 mM MgSO4, 1 mM CaCl2, and 10 mM glucose, pH 7.4 at 22° C., pre-equilibrated with 95% O2/5% CO2. Basal levels of RLC phosphorylation were reduced to uniformly low levels (i.e., <10%) as described previously (Olsson et al., 2004; Stelzer et al., 2006) by perfusing hemisected hearts with Ca^2+-Ringer's solution containing 30 mM 2,3-butanedione monoxime (BDM) for 30 minutes at 22° C. before rapid freezing in liquid nitrogen for storage prior to experimental measurements. The dephosphorylation of RLC provides an appropriate background for assessment of the effects of the peptide, since RLC phosphorylation increases force production in heart muscle and speeds contraction and RLC phosphorylation is nearly nil in heart failure.
On the day of an experiment, frozen ventricles were thawed and homogenized in ice-cold relaxing solution containing 100 mM KCl, 10 mM imidazole, 5 mM MgCl2, 2 mM EGTA, and 4 mMATP, pH 7.0 at 22° C. to yield multicellular preparations with dimensions of 600-900 μm×100-250 μm using a Polytron homogenizer. The cellular homogenates were then centrifuged and subsequently resuspended in ice-cold relaxing solution containing 250 μg/ml saponin and 1% Triton X-100 for 30 minutes at 4° C. […]
as §1, with “half-maximal. […]” for “half-maximal.”

mouse skinned myocardium [4] = test: Relative effects of peptides on force at submaximal pCa (scaled to force at pCa 4.5); assay type: cell-based; conditions: FIG. 7, mouse, 50 μM, intermediate pCa; untreated force ~35% of maximum
Procedure: as §2, with “measurements.” for “measurements. The dephosphorylation of RLC provides an appropriate background for assessment of the effects of the peptide, since RLC phosphorylation increases force production in heart muscle and speeds contraction and RLC phosphorylation is nearly nil in heart failure.”
as §1, with “half-maximal. […]” for “half-maximal.”

Sequence: FSSLLKKRDAFRRDAKLE (SEQ ID NO:47) [302A, 18-mer from cMyBP-C region 293-310 with S→A substitutions at positions 302 and 307]
- increase in Ca2+ sensitivity of force ([1]; porcine myocardium, 50 μM peptide, versus control): 0.32 pCa units
- pCa50 following treatment with peptide ([1]; porcine myocardium, 50 μM peptide, control 5.60): 5.92
- effect of washout of the peptide ([1]; porcine myocardium, after 50 μM peptide): reversed the effect
- effects on force development, porcine versus murine ([1]; skinned myocardium, FIG. 3): significantly greater in porcine than in murine skinned myocardium
- effect on rate constant of force development (ktr) [2]: accelerated the rate of force development at each pCa studied; also recorded: increased at each pCa studied
- increase in Ca2+ sensitivity of force (mouse skinned myocardium [3]; mouse myocardium, 50 μM peptide, versus control): 0.15 pCa units
- pCa50 following treatment with peptide (mouse skinned myocardium [3]; mouse myocardium, 50 μM peptide, control 5.70±0.02): 5.85±0.02
- effect on force-pCa relationship (mouse skinned myocardium [3]; mouse skinned myocardium, peptide 50 μM): shift of the force-pCa relationship to lower Ca^2+ concentrations; also recorded: shifted to lower Ca^2+ concentrations
- force at pCa 5.9 (scaled to force at pCa 4.5), fold of control (mouse skinned myocardium [4]): ~2 × control
